Source: US9440982B2 (Eolas Therapeutics, Inc., priority 2012, dated 2016)

Columns and labels:
[1] = molecular target: T1, cytochrome P450 3A4 isoform (Homo sapiens, UniProt P08684); assay: Cytochrome P450 inhibition assay (midazolam hydroxylation); format: in vitro ADME; conditions: 10 μM test compound; midazolam at approximately its Km; human liver microsomes; 10 µM
T1 construct: pre-incubated with human liver microsomes and NADPH; from tissue; host or cells: human liver microsomes
Summary of the method: (§1)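 Percent inhibition of midazolam 1′-hydroxylation by 10 μM compound was measured, midazolam dosed at about Km. Time-dependent inhibition was probed by a 30 min preincubation of compound with human liver microsomes and NADPH ahead of substrate, compared against samples without preincubation.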

OX1 = molecular target: T2, OX1 (Homo sapiens, UniProt O43613); assay: Orexin receptor cell-based functional assay, [Ca2+]i by FLIPR, CHO-OX1 cells; conditions: CHO-OX1 cells, [Ca2+]i by FLIPR, antagonist dose-range 0.1 nM-10 μM, EC90 of OXA; read-out: OX1
T2 construct: expressed in transfected cells; host or cells: CHO (CHO-OX1, kept under selection antibiotic)
T2 sequence (O43613 1-425): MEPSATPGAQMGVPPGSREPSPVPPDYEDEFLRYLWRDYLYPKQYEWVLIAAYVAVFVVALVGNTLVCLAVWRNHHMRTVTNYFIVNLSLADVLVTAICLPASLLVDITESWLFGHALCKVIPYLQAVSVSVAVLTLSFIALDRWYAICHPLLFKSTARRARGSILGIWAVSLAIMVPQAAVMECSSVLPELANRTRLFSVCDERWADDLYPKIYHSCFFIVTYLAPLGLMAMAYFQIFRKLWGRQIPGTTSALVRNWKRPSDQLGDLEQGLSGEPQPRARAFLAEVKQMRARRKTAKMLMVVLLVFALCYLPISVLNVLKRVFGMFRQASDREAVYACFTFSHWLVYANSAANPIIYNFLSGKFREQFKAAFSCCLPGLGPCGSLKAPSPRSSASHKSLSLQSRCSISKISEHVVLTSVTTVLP
Summary of the method: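 Antagonist mode FLIPR calcium read in CHO-OX1 and CHO-OX2 lines. Test compounds, dosed 0.1 nM-10 μM, preincubated 30 min after 37° C dye loading with 2.5 mM probenecid (calcium4 for 30 min or calcium6 for 2 h).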

OX2 = molecular target: T3, OX2 (Homo sapiens, UniProt O43614); assay: Orexin receptor cell-based functional assay, [Ca2+]i by FLIPR, CHO-OX2 cells; conditions: [Ca2+]i by FLIPR, antagonist dose-range 0.1 nM-10 μM, EC90 of OXA, read-out: OX2
T3 construct: expressed in transfected cells; host or cells: CHO (CHO-OX2, kept under selection antibiotic)
T3 sequence (O43614 1-444): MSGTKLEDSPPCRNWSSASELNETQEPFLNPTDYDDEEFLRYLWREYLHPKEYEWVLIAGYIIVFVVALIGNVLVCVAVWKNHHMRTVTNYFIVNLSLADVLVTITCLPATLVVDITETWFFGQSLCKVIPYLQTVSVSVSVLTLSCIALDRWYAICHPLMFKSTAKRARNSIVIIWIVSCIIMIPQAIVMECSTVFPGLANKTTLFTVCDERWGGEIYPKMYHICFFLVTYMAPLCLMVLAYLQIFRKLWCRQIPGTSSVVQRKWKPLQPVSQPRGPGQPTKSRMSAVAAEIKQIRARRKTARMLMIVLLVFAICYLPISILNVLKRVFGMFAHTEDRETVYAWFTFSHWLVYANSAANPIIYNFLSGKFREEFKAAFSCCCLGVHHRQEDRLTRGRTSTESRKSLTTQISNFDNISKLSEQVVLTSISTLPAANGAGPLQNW
Experimental: Measurement of [Ca^2+]i using a FLIPR: CHO—OX1 or CHO—OX2 cells are seeded into black-walled clear-base 384-well plates (Costar) at a density of 20,000 cells per well in F12-K medium supplemented with 10% FBS and selection antibiotic (500 ug/ml G418 or 15 ug/ml Blasticidin) and cultured overnight. The cells are incubated with equal volume of calcium4 loading buffer (Molecular Devices, Inc.) containing 2.5 mM probenecid at 37° C. for 30 min, followed by putative OX1 or OX2 receptor antagonists (dose-range 0.1 nM-10 μM) for another 30 min.
The cells are incubated with equal volume of calcium6 loading buffer (Molecular Devices, Inc.) containing 2.5 mM probenecid at 37° C. for 2 h, followed by test compounds (dose-range 0.1 nM-10 μM) for another 30 min.

CYP3A4 = molecular target: T4, CYP3A4 (Homo sapiens, UniProt P08684); assay: Cytochrome P450 inhibition assay (midazolam hydroxylation); format: in vitro ADME; conditions: human, human liver microsomes, probe midazolam (hydroxylation to 1′-hydroxymidazolam), 10 μM test compound, midazolam at approximately its Km
T4 construct: pre-incubated with human liver microsomes and NADPH; from tissue; host or cells: human liver microsomes
T4 sequence (P08684 whole entry): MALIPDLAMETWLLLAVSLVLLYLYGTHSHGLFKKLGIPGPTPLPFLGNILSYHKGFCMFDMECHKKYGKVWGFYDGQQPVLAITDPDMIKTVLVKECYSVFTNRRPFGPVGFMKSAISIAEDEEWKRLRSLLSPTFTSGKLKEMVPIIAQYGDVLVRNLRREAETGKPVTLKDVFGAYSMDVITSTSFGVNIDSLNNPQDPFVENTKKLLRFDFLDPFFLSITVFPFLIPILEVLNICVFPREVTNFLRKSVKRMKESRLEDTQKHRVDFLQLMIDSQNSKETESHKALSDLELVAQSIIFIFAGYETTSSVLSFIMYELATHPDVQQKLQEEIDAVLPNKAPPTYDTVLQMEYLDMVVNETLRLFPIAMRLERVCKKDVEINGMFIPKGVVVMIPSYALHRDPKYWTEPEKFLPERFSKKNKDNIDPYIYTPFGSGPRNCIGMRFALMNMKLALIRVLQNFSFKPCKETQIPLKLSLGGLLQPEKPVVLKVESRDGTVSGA
Summary of the method: as §1

T1 sequence (P08684 whole entry, canonical isoform): as the sequence (P08684 whole entry) above

SMILES | % CYP3A4 Inhibition [1] | IC50 (OX1) | IC50 (OX2) | inhibition at 10 µM (CYP3A4)
Cc1nc(C(=O)N2CCC[C@@H](C)[C@H]2CNc2nc3cc(Cl)ccc3o2)c(-c2ccc(F)cc2)s1 [Example A13, ((2S,3R)-2-(((5-Chlorobenzo[d]oxazol-2-yl)amino)methyl)-3-methylpiperidin-1-yl)(5-(4-fluorophenyl)-2-methylthiazol-4-yl)methanone] | 83% | – | – | –
Cc1ccc(C(=O)N2CCC[C@@H](C)[C@H]2CNc2ccc(C(F)(F)F)cn2)c(-n2nccn2)c1F [Example A356, (3-Fluoro-4-methyl-2-(2H-1,2,3-triazol-2-yl)phenyl)((2S,3R)-3-methyl-2-(((5-(trifluoromethyl)pyridin-2-yl)amino)methyl)piperidin-1-yl)methanone] | – | 2 nM | 3900 nM | 86%
Cc1cc(F)c(-c2ncccn2)c(C(=O)N2CCC[C@@H](C)[C@H]2CNc2ncc(C(F)(F)F)cn2)c1 [Example A375, (3-fluoro-5-methyl-2-(pyrimidin-2-yl)phenyl)((2S,3R)-3-methyl-2-(((5-(trifluoromethyl)pyrimidin-2-yl)amino)methyl)piperidin-1-yl)methanone] | – | 8 nM | 170 nM | 48%
Cc1ccc(C(=O)N2CCC[C@@H](C)[C@H]2CNc2ncc(C(F)(F)F)cn2)c(-c2ncccn2)c1F [Example A359, (3-fluoro-4-methyl-2-(pyrimidin-2-yl)phenyl)((2S,3R)-3-methyl-2-(((5-(trifluoromethyl)pyrimidin-2-yl)amino)methyl)piperidin-1-yl)methanone] | – | 6 nM | > 5000 nM | 52%
C[C@@H]1CCCN(C(=O)c2c(F)ccc(F)c2-n2nccn2)[C@@H]1CNc1ncc(C(F)(F)F)cn1 [Example A333, (3,6-difluoro-2-(2H-1,2,3-triazol-2-yl)phenyl)((2S,3R)-3-methyl-2-(((5-(trifluoromethyl)pyrimidin-2-yl)amino)methyl)piperidin-1-yl)methanone] | – | 15 nM | > 5000 nM | 38%
Cc1ccc(-n2nccn2)c(C(=O)N2CCC[C@@H](C)[C@H]2CNc2ncc(Cl)cc2F)c1 [Example A92, ((2S,3R)-2-(((5-Chloro-3-fluoropyridin-2-yl)amino)methyl)-3-methylpiperidin-1-yl)(5-methyl-2-(2H-1,2,3-triazol-2-yl)phenyl)methanone] | 91% | – | – | –
Cc1c(F)ccc(C(=O)N2CCC[C@@H](C)[C@H]2CNc2ccc(C(F)(F)F)cn2)c1-n1nccn1 [Example A344, (4-Fluoro-3-methyl-2-(2H-1,2,3-triazol-2-yl)phenyl)((2S,3R)-3-methyl-2-(((5-(trifluoromethyl)pyridin-2-yl)amino)methyl)piperidin-1-yl)methanone] | – | 2 nM | 2800 nM | 75%
C[C@@H]1CCCN(C(=O)c2ccc(F)c(F)c2-n2nccn2)[C@@H]1CNc1ncc(C(F)(F)F)cn1 [Example A325, (3,4-difluoro-2-(2H-1,2,3-triazol-2-yl)phenyl)((2S,3R)-3-methyl-2-(((5-(trifluoromethyl)pyrimidin-2-yl)amino)methyl)piperidin-1-yl)methanone] | – | 2 nM | 4100 nM | 80%
Cc1ccc(-n2nccn2)c(C(=O)N2CCC[C@@H](C)[C@H]2COc2ccc(C(F)(F)F)cn2)c1 [Example A106] | – | 7 nM | 2300 nM | 54%
C[C@@H]1CCCN(C(=O)c2c(F)ccc(F)c2-c2ncccn2)[C@@H]1CNc1ncc(C(F)(F)F)cn1 [Example A335, (3,6-difluoro-2-(pyrimidin-2-yl)phenyl)((2S,3R)-3-methyl-2-(((5-(trifluoromethyl)pyrimidin-2-yl)amino)methyl)piperidin-1-yl)methanone] | – | 4 nM | > 5000 nM | 44%
Cc1cc(F)c(-n2nccn2)c(C(=O)N2CCC[C@@H](C)[C@H]2CNc2ccc(C(F)(F)F)cn2)c1 [Example A372, (3-Fluoro-5-methyl-2-(2H-1,2,3-triazol-2-yl)phenyl)((2S,3R)-3-methyl-2-(((5-(trifluoromethyl)pyridin-2-yl)amino)methyl)piperidin-1-yl)methanone] | – | 1 nM | 490 nM | 83%
Cc1cc(F)c(-n2nccn2)c(C(=O)N2CCC[C@@H](C)[C@H]2CNc2ncc(C(F)(F)F)cn2)c1 [Example A373, (3-fluoro-5-methyl-2-(2H-1,2,3-triazol-2-yl)phenyl)((2S,3R)-3-methyl-2-(((5-(trifluoromethyl)pyrimidin-2-yl)amino)methyl)piperidin-1-yl)methanone] | – | 1 nM | 1900 nM | 60%
Cc1nc(C(=O)N2CCC[C@@H](C)[C@H]2CNc2nc3cc(Cl)ccc3o2)c(-c2ccc(F)cc2)s1 [Example A84, ((2S,3R)-2-(((5-Chlorobenzo[d]oxazol-2-yl)amino)methyl)-3-methylpiperidin-1-yl)(5-(4-fluorophenyl)-2-methylthiazol-4-yl)methanone] | 50% | – | – | –
Cc1ccc(F)c(C(=O)N2CCC[C@@H](C)[C@H]2CNc2ccc(C(F)(F)F)cn2)c1-c1ncccn1 [Example A354, (6-fluoro-3-methyl-2-(pyrimidin-2-yl)phenyl)((2S,3R)-3-methyl-2-(((5-(trifluoromethyl)pyridin-2-yl)amino)methyl)piperidin-1-yl)methanone] | – | 4 nM | 790 nM | 49%
Cc1cc(F)cc(C(=O)N2CCC[C@@H](C)[C@H]2CNc2ccc(C(F)(F)F)cn2)c1-n1nccn1 [Example A348, (5-fluoro-3-methyl-2-(2H-1,2,3-triazol-2-yl)phenyl)((2S,3R)-3-methyl-2-(((5-(trifluoromethyl)pyridin-2-yl)amino)methyl)piperidin-1-yl)methanone] | – | 2 nM | > 4000 nM | 77%
Cc1c(F)ccc(C(=O)N2CCC[C@@H](C)[C@H]2CNc2ncc(C(F)(F)F)cn2)c1-c1ncccn1 [Example A347, (4-fluoro-3-methyl-2-(pyrimidin-2-yl)phenyl)((2S,3R)-3-methyl-2-(((5-(trifluoromethyl)pyrimidin-2-yl)amino)methyl)piperidin-1-yl)methanone] | – | 2 nM | > 5000 nM | 35%
Cc1ccc(-n2nccn2)c(C(=O)N2CCC[C@@H](C)[C@H]2CNc2ncc(F)cc2F)c1 [Example A91, ((2S,3R)-2-(((3,5-Difluoropyridin-2-yl)amino)methyl)-3-methylpiperidin-1-yl)(5-methyl-2-(2H-1,2,3-triazol-2-yl)phenyl)methanone] | 58% | – | – | –
Cc1ccc(-n2nccn2)c(C(=O)N2CCC[C@@H](C)[C@H]2CNc2ncc(Cl)cc2F)n1 [Example A192, ((2S,3R)-2-(((5-Chloro-3-fluoropyridin-2-yl)amino)methyl)-3-methylpiperidin-1-yl)(6-methyl-3-(2H-1,2,3-triazol-2-yl)pyridin-2-yl)methanone] | – | 10 nM | > 5000 nM | 51%
